Columns and labels:
[1] = system: hPSC-derived cardiac progenitors and hPSC-CMs; test: RT-qPCR gene expression in progenitors or cardiomyocytes; format: cell-based, human
Method: Frozen cell pellets from progenitors or cardiomyocytes in the 19-9-11 iPS cell line were thawed and RNA isolated using RNeasy spin columns with on-column DNase treatment according to the manufacturer's instructions (Qiagen). 500 ng of isolated RNA was used as template for reverse transcription using Biorad iScript RT supermix according to the manufacturer's instructions. 2.5 ng of derived cDNA was then used as template in qPCR with Taqman® primers bearing FAM-MGB dyes for genes of interest in a 20 μL reaction with Taqman® universal PCR supermix and the manufacturer's recommended cycling conditions (Thermo Fisher Scientific).

cTnT isoforms = test: Top-down mass spectrometry of cTnT isoforms (adult to fetal AUC ratio); format: cell-based, human; settings: DAPT day 3-16
Method: Freshly isolated CMs from the H9-cTnT-GFP (FIG. 1) or 19-9-11 (FIG. 2) hPSC cell lines were washed with Ca^2+-free DPBS and centrifuged at 1,100 g for 5 minutes (min) and the wash solvent was removed. The cells were first homogenized in 50 μl HEPES solution (25 mM HEPES, pH 7.4, 2.5 mM EDTA, 100 mM NaF, 1 mM DTT, 10 mM L-methionine, 1 mM PMSF, 1 mM Na3VO4, protease inhibitor (Abcam) and phosphatase inhibitors). The homogenates were centrifuged at 17,000 g for 20 min and the HEPES extract containing predominately cytosolic proteins was collected. The remaining pellets were homogenized in 40 μl trifluoroacetic acid (TFA) solution (1% TFA, 5 mM tris(2-carboxyethyl)phosphine, 5 mM L-methionine) and centrifuged at 17,000 g for 20 min. The TFA extract containing predominantly the sarcomeric proteins was collected. Bradford protein assays were performed to determine the protein concentration. The sarcomeric protein-enriched extracts were diluted to 100 ng/μl for Liquid chromatography (LC)-MS analysis.
500 ng of each sarcomeric protein-enriched extract was injected to a home-packed reverse phase chromatography (RPC) column (PLRP-S, 10 μm particle size, 1000 A pore size, 500 μm inner diameter, 25 cm long), and the proteins were separated with a gradient of 5-95% mobile phase B (0.1% formic acid in 50:50 acetonitrile:ethanol) (mobile phase A: 0.1% formic acid in H2O) at a constant flowrate of 12 μl/min. The eluting proteins were analyzed by a high-resolution quadrupole-time of flight (q-TOF) mass spectrometer (Impact II, Bruker Daltonics) via electrospray ionization. The mass spectra were collected at a scan rate of 0.5 Hz for all samples being analyzed. Analyses of top-down mass spectra were performed using the vender-specific software DataAnalysis 3.2 (Bruker Daltonics).
Quantification of the sarcomeric protein isoforms was performed as previously described. […] The area under curve (AUC) of the EIC of a specific protein isoform represents the abundance of the selected protein isoform. […] Relative quantification of protein isoform expression was measured by the ratio of the AUCs.

[2] = system: hPSC-CM sheets from replated progenitors; test: Video edge detection / beating analysis of cardiomyocyte sheets; format: cell-based, human; settings: DAPT present day3-day20
Method: (§1) For quantification of spatial regularity and graphical presentation of time averaged beating in microtissue from the H9-cTnT-GFP (FIGS. 9A, C) or 19-9-11 (FIG. 9B) cell lines, .avi video files of low-powered (2.5× magnification) fields were recorded at a resolution of 1268×720 and a frame rate of 20/second. These videos were exported into a series of sequential .tiff files using Adobe Premiere, and then analyzed in MATLAB using previously described coding algorithms (Huebsch et al., 2015). Calculations of beat rate (before and after ivrabradine, […] for 2 hours, Sigma) were performed manually in the 19-9-11 cell line and multifocal patterns in untreated progenitor-derived sheets were represented as the average rate of beating for all foci present in a field.

hPSC-CMs [3] = test: Optical action potential measurement (RH237); format: cell-based, human; settings: DAPT day 3-16
Method: After hPSC-CM dissociation, day 30 to 60 lactate-purified hPSC-CMs from the 19-9-11 cell line were plated as 80 μL drops on areas of cover glass previously coated in drops of Synthemax® working solution of 80 μL (Corning) in the K20/2 dissociation and replating technique described above. After at least two days in K2 medium, the fast-equilibrating voltage-sensitive dye RH237 at 1 μM was added and live cells imaged in the cover glass in a Leica confocal microscope. Video files of individual cells were taken and filtered with the 50th FIR filter at a cutoff frequency of 128 Hz. The resulting action potentials were analyzed for rise time and voltage velocity in MATLAB. Individual cells were considered as replicates for statistical purposes and came from 4 cell preparations.

hPSC-CMs [4] = test: Cardiomyocyte yield and purity in GiWi differentiation; format: cell-based, human; settings: DAPT early (day 3-5 or 3-7) and extended (day 3-10 or 3-16)
Method: To differentiate cardiomyocytes from hPSCs, the small molecule temporal modulation of the Wnt pathway (GiWi) monolayer protocol was used essentially as previously described (Lian et al., 2012). Human embryonic or induced pluripotent stem cells were dissociated with Versene (Thermo Fisher Scientific) for 6 minutes at 37° C., pipetted up and down 40 times, counted with a hemocytometer, spun down at 100×g for 5 minutes, and resuspended and seeded for differentiation at 1.5 million cells per well in 6 well plates or 0.4 million per well in 12 well plates in mTeSR® on stem-cell verified Matrigel® (WiCell) containing 10 μM Y-27632 ROCK-inhibitor (Tocris). After four days in mTeSR® (WiCell), at which point cells grew to 100 percent confluence, medium was switched to RPMI supplemented with B27 supplement not containing insulin (Thermo Fisher Scientific) and containing 12 μM of the Wnt agonist CHIR99021 (Tocris) for exactly 24 hours. Media was then changed to RPMI supplemented with B27 not containing insulin for exactly 48 hours. Then medium was then switched at day 3 to RPMI supplemented with B27 not containing insulin and containing 5 μM IWP2 (Tocris). At day 5, media was switched to RPMI supplemented with B27 not containing insulin for two days. At day 7 and every three days afterward, medium was replaced with RPMI supplemented with B27 containing insulin (Thermo Fisher Scientific). […]

hPSC-CMs [5] = test: Cardiomyocyte yield from dissociated and replated progenitors; format: cell-based, human; settings: DAPT
Method: For dissociation of day 5 cells (for destructive analyses or live cell replating experiments), progenitors were dissociated with Versene (Thermo Fisher Scientific) for 10 minutes at 37° C., pipetted up and down 40 times, and then neutralized 1:1 v/v versene solution with “K20” medium (DMEM/F12 with 1×NEAA, 1× Glutamine, 0.1 mM (3-mercaptoethanol, and 20% Knockout Serum Replacer by volume, all Thermo Fisher Scientific). For destructive analyses, pellets were made by centrifugation at 1.1×1000 g for 5 minutes, aspiration of medium supernatant, snap-freezing in liquid nitrogen, and kept at −80° C. for until pellet lysis for DNA, protein, or RNA isolation.
For replating of progenitors and microtissue formation, after neutralization and cell counting, 0.8 million day-5 progenitors per well were spun down at 100×g as above and resuspended and plated in 1 mL K20 with 10 μM Y-27632 ROCK-inhibitor (Tocris) into Synthemax® II-SC coated 12 well plates (Corning). Media was then changed daily in 2 mL of “K2” (same formulation as K20 above, but with just 2% Knockout Serum Replacer), and changed daily. Differentiating hPSC-CMs from replated progenitors in this protocol beat by day 8 to 12.

[6] = system: day 5 cardiac progenitor cells; test: Propidium iodide cell cycle flow cytometry; format: cell-based, human; settings: DAPT with pI:C, day 5
Method: Propidium iodide staining was performed on ethanol-fixed cells of the 19-9-11 iPS cell line with a low flow rate and linear mode fluorescence according to a previously published protocol (Darzynkiewicz and Juan, 2001).

NF-κB activation = settings: cited from earlier work
H9-TnT-GFP hPSC-CMs = test: cTnT-GFP reporter imaging of hPSC-CMs after NFκB inhibition; format: cell-based, human; settings: QNZ day 3-5 concurrent with pI:C
Method: Antibodies: NFKappaB (Abcam) and phosphorylated IKappaB (Abcam). Antibodies were used at a dilution of 1:1000. NF-κB inhibitor: 40 nM QNZ (Selleckchem).

HCN4 channel = target: T1, HCN4 channel (Homo sapiens, UniProt Q9Y3Q4); test: Spontaneous beat rate of cardiomyocyte sheets before and after ivrabradine; format: cell-based
T1 construct: endogenous in cells; host or cells: replated progenitor-derived cardiomyocyte sheets, 19-9-11 iPS cell line
T1 sequence (Q9Y3Q4 1-1203): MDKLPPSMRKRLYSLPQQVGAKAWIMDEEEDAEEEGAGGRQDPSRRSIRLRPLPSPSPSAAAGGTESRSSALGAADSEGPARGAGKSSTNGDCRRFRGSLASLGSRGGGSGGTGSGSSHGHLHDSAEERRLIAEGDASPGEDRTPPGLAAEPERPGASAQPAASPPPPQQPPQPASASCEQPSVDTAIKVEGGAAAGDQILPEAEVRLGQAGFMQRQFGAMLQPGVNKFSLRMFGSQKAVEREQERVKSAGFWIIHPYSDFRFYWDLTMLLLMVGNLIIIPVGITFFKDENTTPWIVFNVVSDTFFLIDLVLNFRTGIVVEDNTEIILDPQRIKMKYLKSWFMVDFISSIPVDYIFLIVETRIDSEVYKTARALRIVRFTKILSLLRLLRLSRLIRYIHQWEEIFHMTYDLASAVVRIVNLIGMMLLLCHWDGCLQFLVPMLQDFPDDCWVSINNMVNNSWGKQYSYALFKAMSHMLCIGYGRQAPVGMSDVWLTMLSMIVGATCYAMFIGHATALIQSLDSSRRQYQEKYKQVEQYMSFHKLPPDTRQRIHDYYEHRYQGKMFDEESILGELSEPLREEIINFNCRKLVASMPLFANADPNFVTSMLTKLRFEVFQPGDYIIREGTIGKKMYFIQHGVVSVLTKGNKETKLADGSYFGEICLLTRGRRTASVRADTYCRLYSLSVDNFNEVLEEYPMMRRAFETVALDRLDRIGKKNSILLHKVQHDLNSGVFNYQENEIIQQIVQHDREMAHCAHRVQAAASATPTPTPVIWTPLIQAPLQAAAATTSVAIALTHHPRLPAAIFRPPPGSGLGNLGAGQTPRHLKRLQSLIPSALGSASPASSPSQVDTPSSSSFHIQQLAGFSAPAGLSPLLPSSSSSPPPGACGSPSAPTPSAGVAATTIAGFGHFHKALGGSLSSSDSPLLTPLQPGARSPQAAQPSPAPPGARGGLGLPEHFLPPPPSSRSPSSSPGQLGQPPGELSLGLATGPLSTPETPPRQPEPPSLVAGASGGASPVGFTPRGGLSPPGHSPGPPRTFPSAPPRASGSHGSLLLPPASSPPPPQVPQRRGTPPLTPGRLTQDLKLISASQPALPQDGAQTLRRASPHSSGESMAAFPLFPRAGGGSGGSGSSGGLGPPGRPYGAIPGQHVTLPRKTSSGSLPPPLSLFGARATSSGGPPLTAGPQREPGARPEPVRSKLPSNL
Method: as §1

With C[C@H](NC(=O)Cc1cc(F)cc(F)c1)C(=O)N[C@H](C(=O)OC(C)(C)C)c1ccccc1 [DAPT] the “effect on pI:C-increased expression of cardiomyocyte maturation genes (αMHC, cTnI, cardiac actin, ATP5a, RYR2, SERCA)” value ([1]; DAPT day 3-5 or day 3-16) was “reversed the increased expression”, the “effect on pI:C downregulation of cardiac fibroblast genes” value ([1]; Notch inhibition (DAPT) with pI:C) was “accentuated” and the “effect on protein isoform change toward adult cTnT 6 and 11 caused by pI:C” value (cTnT isoforms) was “abrogated”. The “contraction pattern of hPSC-CM sheets from pI:C-primed progenitors” value [2] was “multifocal and disorganized without forming waves of contraction”, the “effect on increase in optical upstroke velocity (decreased rise time) from primed progenitors” value (hPSC-CMs [3]) was “blocked only with DAPT treatment from day 3-16” and the “effect on pI:C-increased hPSC-CM yield” value (hPSC-CMs [4]) was “blocked pI:C's effect on hPSC-CM yield”. The “effect on increased yield from replated primed progenitors” value (hPSC-CMs [5]) was “blocked this increased yield” and the “effect on increased cell cycle activity of primed progenitors” value [6] was “blocked the increased cell cycle activity”.
For Nc1ccc2ncnc(NCCc3ccc(Oc4ccccc4)cc3)c2c1 [QNZ], the “effect on pI:C-increased maturation gene expression” value ([1]; day 20 pPSC-CM, QNZ with pI:C) is given as “reversed”, the “inhibitory activity toward both NF-κB activation and TNF-α production” value (NF-κB activation) is given as “potent inhibitory activity” and the “effect on formation of TnT-GFP positive cardiomyocyte collections after pIC treatment” value (H9-TnT-GFP hPSC-CMs) is given as “blocked the generation of large collections of TnT-GFP positive cardiomyocytes”.
For COc1cc2c(cc1OC)CC(=O)N(CCCN(C)C[C@H]1Cc3cc(OC)c(OC)cc31)CC2 [ivrabradine], the “effect on spontaneous contractions” value (HCN4 channel; cardiomyocyte sheets from primed progenitors, 5 μm for 2 hours) was “blocked the spontaneous contractions” and the “effect on beat rate” value (HCN4 channel; cardiomyocyte sheets from untreated progenitors, 5 μM for 2 hours) was “little effect”.

From patent US11352604B2, “Method of making cardiomyocytes from human pluripotent cells” (Wisconsin Alumni Research Foundation, priority 2016, dated 2022)
